Test results published in patent US5948792A, “Fluorine-containing 1,4-disubstituted piperidine derivatives” (Banyu Pharmaceutical Co., Ltd., priority 1996, dated 1999).

How the values were obtained:
[1] = biological target: T1, Muscarinic M3 Receptor (Rattus norvegicus, UniProt P08483); assay: Bronchodilation in rats (i.v.), inhibition of acetylcholine-induced increase in airway resistance; assay type: in vivo; conditions: iv, 5 min, acetylcholine 50 μg/kg i.v. 5 minutes after test compound, read-out: Inhibition of Airway Contraction ED50 iv
T1 construct: male rats of the Sprague-Dawley strain; from tissue; host or cells: airways of living male Sprague-Dawley rats (in vivo)
Procedure: (§1) Tests for Antagonism Against Muscarinic M3 Receptor (in vivo)
1-A) Tests for Bronchodilation in Rats (i.v.).
Eight- to eleven-weeks-old male rats of the Sprague-Dawley strain, weighing 380-420 g, were anesthetized with urethane (750 mg/kg. i.p.) and α-chloralose (37.5 mg/kg, i.p.). The bronchus of each rat was intubated, and the right jugular vein was cannulated for drug administration. […] To evoke an increase in airway resistance, acetylcholine (50 μg/kg, i.v.) was administered to the animals. The acetylcholine-induced airway resistance increase was measured 5 minutes before and 5 minutes after administration of test compound, and the ratio of the airway resistance of the latter to the former was calculated. In controls, isotonic sodium chloride solution was used in place of the test compounds and otherwise identical procedures were repeated, the calculated ratio being set to be 100%.

[2] = biological target: T2, Muscarinic M3 receptor (Homo sapiens, UniProt P20309); assay: Inhibition of binding of [3H]-N-methylscopolamine to muscarinic M3 receptor
T2 construct: purchased Receptor Biology, Inc; host or cells: CHO cells (membranes)
Procedure: (§2) Tests on Inhibition of Binding to Muscarinic Receptors
(§3) These tests were performed according to a modification of the method of Hargreaves et al. (Br. J. Pharmacol. 107: 494-501, 1992). Membranes from CHO cells expressing cloned human m1-m5 (Receptor Biology, Inc.) were incubated with 0.2 nM [^3 H]-N-methylscopolamine and each a compound of the present invention to be tested in 0.5 ml of 50 mM Tris-HCl-10 mM MgCl2 -1 mM EDTA (pH 7.4) for 2 hours at 25° C. Free and membrane-bound [^3 H]-N-methylscopolamine were separated by filtration over glass filters (UniFilter-GF/C; Packard Instruments Co., Inc.) using cell harvester (Filtermate™ 196; Packard Instruments Co., Inc.). Then the filter was washed four times with 1 ml of ice-cold Tris-HCl (pH 7.4) and dried at 50° C. After adding a scintillator (Microscinti 0; Packard Instruments Co., Inc.), the radioactivity was counted by a liquid scintillation counter (TopCount™; Packard Instruments Co., Inc.). Non-specific binding was measured in the presence of 1 μM N-methylscopolamine.

[3] = biological target: T3, Muscarinic M2 receptor (Homo sapiens, UniProt P08172); assay: Inhibition of binding of [3H]-N-methylscopolamine to muscarinic M2 receptor; conditions: CHO cell membranes expressing cloned human receptor; 0.2 nM [3H]-N-methylscopolamine, pH 7.4, 2 hours, 25° C; read-out: Ki M2 (inhibitory effects on binding to muscarinic M2 receptor)
T3 construct: purchased Receptor Biology, Inc; host or cells: CHO cells (membranes)
T3 sequence (P08172 1-466): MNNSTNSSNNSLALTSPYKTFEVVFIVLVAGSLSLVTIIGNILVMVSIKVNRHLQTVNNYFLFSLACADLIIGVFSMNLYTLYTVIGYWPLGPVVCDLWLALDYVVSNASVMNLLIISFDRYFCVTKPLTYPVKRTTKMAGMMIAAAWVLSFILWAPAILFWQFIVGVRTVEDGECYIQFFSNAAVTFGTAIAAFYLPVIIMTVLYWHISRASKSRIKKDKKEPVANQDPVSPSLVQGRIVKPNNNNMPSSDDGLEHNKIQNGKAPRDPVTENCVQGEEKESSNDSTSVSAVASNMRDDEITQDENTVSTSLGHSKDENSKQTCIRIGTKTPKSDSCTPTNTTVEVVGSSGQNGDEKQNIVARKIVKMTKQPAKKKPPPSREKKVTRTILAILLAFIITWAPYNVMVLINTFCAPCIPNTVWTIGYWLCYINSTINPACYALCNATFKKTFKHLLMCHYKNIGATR
Procedure: as §2, §3

[4] = test system: Muscarinic M3 Receptor; assay: Bronchodilation in dogs (p.o.), methacholine provocation test; assay type: in vivo, dog; conditions: beagle dogs, 1 mg/kg p.o., 4 hours after administration
Procedure: as §1
2) Tests for Bronchodilation in Dogs (p.o.)
Twelve- to twenty-four-months-old male beagle dogs (weighing 10-15 kg) were anesthetized with pentobarbital (30 mg/kg, i.v.) and intubated in their bronchus. Their airway sensitivity to inhaled methacholine were measured at least twice at two-weeks interval, and the dogs showing a reproducible methacholine reaction threshold values^1) ware selected. To those dogs whose methacholine reaction threshold value had been confirmed, the test compounds were orally administered (1 mg/kg). Four hours after the administration, the methacholine provocation test was conducted, and then the methacholine reaction threshold value^2) after administration of the test compound was obtained.
The bronchodilator activity of the test compound was determined following equation: [formula]
The methacholine provocation test was conducted using Astograph TCK-6100H Model (Chest). Methacholine chloride was used as bronchoconstritor, which was diluted with isotonic sodium chloride solution in 10-grade concentration levels starting from 40,000 μg/ml, as 20,000, 10,000, 5,000, 2,500, 1,250, 625, 312.5, 156 and 78 μg/ml. These methacholine aerosols were inhaled to the test animal each for 1 min, starting from the lowest concentration level, and respiration resistance was continuously recorded. The concentration level at which the respiration resistance reached twice the initial value was recorded as the methacholine threshold value.

[5] = biological target: T1, Muscarinic M3 Receptor; assay: Bronchodilation in rats (p.o.), inhibition of acetylcholine-induced increase in airway resistance; assay type: in vivo; conditions: po, 1 h, acetylcholine 50 μg/kg i.v. 60 minutes after test compound, read-out: Inhibition of Airway Contraction ED50 po
Procedure: as §1
1-B) Tests for Bronchodilation in Rats (p.o.)
Eight- to eleven-weeks-old male rats of Sprague-Dawley strain weighing 380-420 g were orally administered with a test compound. The rats were treated in the identical manner as in the i.v. test, starting 30 minutes after the administration, and their airway resistance values were measured. The acetylcholine-(50 μg/kg, i.v.) induced airway resistance increase were measured 60 minutes after the administration of test compounds. In controls, isotonic sodium chloride solution was used in place of the test compounds and otherwise identical procedures were repeated, the ratio between the two airway resistance values whereby being set to be 100%.

T1 sequence (P08483 whole entry): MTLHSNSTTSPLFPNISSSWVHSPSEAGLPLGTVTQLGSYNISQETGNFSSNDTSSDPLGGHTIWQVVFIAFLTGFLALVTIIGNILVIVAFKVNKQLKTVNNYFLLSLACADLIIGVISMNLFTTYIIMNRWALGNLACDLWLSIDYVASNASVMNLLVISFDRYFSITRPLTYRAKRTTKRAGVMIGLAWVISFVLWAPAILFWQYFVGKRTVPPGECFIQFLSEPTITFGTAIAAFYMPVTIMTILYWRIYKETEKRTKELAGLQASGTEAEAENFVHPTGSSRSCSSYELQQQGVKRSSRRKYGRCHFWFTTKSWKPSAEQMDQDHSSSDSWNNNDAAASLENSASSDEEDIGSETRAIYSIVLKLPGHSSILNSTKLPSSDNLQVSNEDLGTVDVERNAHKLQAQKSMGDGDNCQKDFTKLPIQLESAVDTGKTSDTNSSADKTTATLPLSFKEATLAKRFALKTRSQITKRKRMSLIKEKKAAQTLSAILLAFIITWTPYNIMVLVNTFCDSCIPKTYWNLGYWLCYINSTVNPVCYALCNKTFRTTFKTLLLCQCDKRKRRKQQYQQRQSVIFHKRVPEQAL
T2 sequence (P20309 whole entry): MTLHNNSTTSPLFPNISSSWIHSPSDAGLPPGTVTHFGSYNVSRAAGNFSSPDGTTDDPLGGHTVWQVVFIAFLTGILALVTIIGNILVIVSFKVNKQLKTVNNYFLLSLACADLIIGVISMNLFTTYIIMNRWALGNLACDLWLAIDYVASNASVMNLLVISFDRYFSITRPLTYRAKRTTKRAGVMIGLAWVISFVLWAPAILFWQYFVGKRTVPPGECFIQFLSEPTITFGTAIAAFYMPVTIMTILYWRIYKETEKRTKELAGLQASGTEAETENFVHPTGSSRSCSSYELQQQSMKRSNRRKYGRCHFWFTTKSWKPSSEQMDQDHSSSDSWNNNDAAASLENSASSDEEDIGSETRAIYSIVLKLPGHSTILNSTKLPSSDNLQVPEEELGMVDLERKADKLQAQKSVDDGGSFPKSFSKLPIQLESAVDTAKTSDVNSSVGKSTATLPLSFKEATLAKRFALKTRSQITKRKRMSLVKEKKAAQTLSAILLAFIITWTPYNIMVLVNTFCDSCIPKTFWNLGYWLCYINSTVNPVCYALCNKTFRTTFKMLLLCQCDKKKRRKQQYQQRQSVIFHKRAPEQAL

COc1cc(CN2CCC(NC(=O)[C@](O)(c3ccccc3)[C@@H]3CCC(F)(F)C3)CC2)ccc1N [Example 26, (2R)-N-[1-(4-amino-3-methoxybenzyl)piperidin-4-yl]-2-[(1R)-3,3-difluorocyclopentyl]-2-hydroxy-2-phenylacetamide]
ED50 [1]: 0.37 mg/kg | Ki ([2]; CHO cell membranes expressing cloned human receptor, 0.2 nM [3H]-N-methylscopolamine, pH 7.4, 2 hours, 25° C, read-out: Ki M3 (inhibitory effects on binding to muscarinic M3 receptor)): 0.022 µM | M2/M3 (ratio of binding Ki) ([2]; selectivity ratio of Ki values, binding): 1100 | Ki [3]: 24 µM | Methacholine Inhalation-inducing Test shift value (after 4 hrs.) [4]: > 64 | ED50 [5]: 0.95 mg/kg
